Reference: PubChem BioAssay (NCI)
“And” between values parts separate entries of the source, which are not always exact repeats. Identical values can stand only once.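 Cells were grown in 96-well plates and exposed to each compound for 48 hours at five concentrations; endpoints were interpolated linearly between bracketing concentrations, or set to the highest concentration if not reached. At the GI50, growth is halved. TGI denotes the concentration required for complete inhibition of growth.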

Experiments:
Assay in all cases: DTP human tumour cell line panel, 48 h
NCI/ADR-RES ovarian = tested on: NCI/ADR-RES ovarian
M14 melanoma = tested on: M14 melanoma
SK-MEL-2 melanoma = tested on: SK-MEL-2 melanoma
A549 NSCLC = tested on: A549 NSCLC
HOP-62 NSCLC = tested on: HOP-62 NSCLC
SK-MEL-28 melanoma = tested on: SK-MEL-28 melanoma
MCF7 breast = tested on: MCF7 breast
HL-60(TB) leukemia = tested on: HL-60(TB) leukemia
HCT-116 colon = tested on: HCT-116 colon
HCT-15 colon = tested on: HCT-15 colon

Structure (SMILES) | GI50 (NCI/ADR-RES ovarian) | TGI (NCI/ADR-RES ovarian) | GI50 (M14 melanoma) [µM] | TGI (M14 melanoma) | GI50 (SK-MEL-2 melanoma) [µM] | TGI (SK-MEL-2 melanoma) | GI50 (A549 NSCLC) [µM] | TGI (A549 NSCLC) | GI50 (HOP-62 NSCLC) [µM] | TGI (HOP-62 NSCLC) | GI50 (SK-MEL-28 melanoma) [µM] | TGI (SK-MEL-28 melanoma) | GI50 (MCF7 breast) | TGI (MCF7 breast) | GI50 (HL-60(TB) leukemia) [µM] | TGI (HL-60(TB) leukemia) [µM] | GI50 (HCT-116 colon) [µM] | TGI (HCT-116 colon) | GI50 (HCT-15 colon) [µM] | TGI (HCT-15 colon)
CCCCCCCCCCCCNC(=O)[C@H]1CSC(c2ccsc2)N1 (some centres not stated) | 1.23 µM | 2.56 µM | 0.855 | 1.63 µM | 0.974 | 1.76 µM | 6.77 | 13.7 µM | 0.873 | 1.62 µM | 0.814 | 1.54 µM | 0.879 µM | 1.71 µM | 0.91 | 2.31 | 0.908 | 1.71 µM | 0.883 | 1.69 µM
NC1(C(=O)O)CSSC1 | 3.46 µM | 27.7 µM | 3.21 | 11.8 µM | 2.66 | 7.95 µM | 3.37 | > 100 µM | 2.92 | 9.83 µM | 3.14 | 10.7 µM | 3.65 µM | 23.9 µM | 2.82 | 11.9 | 4.53 | 84.5 µM | 3.88 | 84.7 µM
C#CCn1cc(C=C2C(=O)NC(=S)NC2=O)c2cc(Cl)ccc21 | 3.09 µM | 12.8 µM | 2 | 4.76 µM | 2.41 | 5.91 µM | 3.63 | 16.6 µM | 2.64 | 8.98 µM | 2.33 | 5.56 µM | 1.67 µM | 3.46 µM | 2.24 | 6.45 | 1.86 | 3.6 µM | 1.98 | 4.64 µM
CN1CCN(CCCOc2ccc3ncnc(Nc4ccc(Oc5cccc(F)c5)c(Cl)c4)c3c2)CC1 | 1.83 µM | 4.79 µM | 1.79 | 3.62 µM | 1.95 | 4.04 µM | 1.56 | 3.24 µM | 1.75 | 3.76 µM | 1.7 | 3.11 µM | 1.57 µM | 3.31 µM | 2.05 | 4.17 | 1.51 | 2.86 µM | 1.27 | 2.92 µM
Cc1cc(S(N)(=O)=O)c(S/C(=N\NS(=O)(=O)c2ccccc2)c2ccc(Cl)c(Cl)c2)cc1Cl | 28.5 µM | 77.6 µM | 92.3 | > 100 µM | > 100 | > 100 µM | 32.2 | 96.9 µM | 63.5 | > 100 µM | 84.1 | > 100 µM | 30.5 µM | > 100 µM | 21.7 | 53.4 | 38 | > 100 µM | 46.1 | > 100 µM
CC(=O)c1c(Nc2ccc(F)c(F)c2F)[nH]c2c(F)cc(F)cc2c1=O | 0.322 µM | 34.5 µM | 0.352 | 4.06 µM | 0.322 | 1.35 µM | 0.382 | > 41.8 µM | 0.335 | 8.18 µM | 0.356 | 3.57 µM | 0.283 µM | 13.5 µM | 0.372 | – | 0.291 | 5.57 µM | 0.331 | 1.73 µM
COc1ccc2c(c1)c(-c1cc(-c3cn(C)c4ccc(OC)cc34)[nH]n1)cn2C | > 100 µM | > 100 µM | > 100 | > 100 µM | > 100 | > 100 µM | > 100 | > 100 µM | > 100 | > 100 µM | > 100 | > 100 µM | > 100 µM | > 100 µM | > 100 | > 100 | > 100 | > 100 µM | > 100 | > 100 µM
COc1ccc(-c2conc2-c2ccccc2)cc1 | 0.142 µM | > 100 µM | 0.268 | > 100 µM | 0.585 | > 100 µM | 0.502 | > 100 µM | 0.43 | > 100 µM | 10.8 | > 100 µM | 0.0865 µM | > 100 µM | 0.288 | 1.41 | 0.318 | > 100 µM | 0.099 | > 100 µM
CCOC(=O)C(=Cc1c(-c2ccccc2)[nH]c2ccccc12)C(=O)OCC | 2.84 µM | 14.6 µM | 4.16 | 15.6 µM | 4.6 | 17.3 µM | 6.34 | 24.5 µM | 4.27 | 14.1 µM | 7.4 | 21.6 µM | 4.49 µM | 18 µM | 4.19 | 35.5 | 4.25 | 16 µM | 4.07 | 38.4 µM
COc1ccc2nc3cc(Cl)ccc3c(Nc3ccc(O)c(CN4CCCC4)c3)c2c1 | 1.93 µM | 4.54 µM | 1.89 | 3.54 µM | 1.99 | 3.77 µM | 1.99 | 4.06 µM | 2.14 | 5.34 µM | 1.98 | 3.46 µM | 1.32 µM | 2.87 µM | 2.18 | 6.08 | 1.41 | 2.92 µM | 2.6 | 10.3 µM
Cc1ccc(-c2cc(C(Cl)Cl)on2)cc1 | 44.9 µM | > 100 µM | 74.1 | > 100 µM | > 100 | > 100 µM | 65.6 | > 100 µM | 95.5 | > 100 µM | > 100 | > 100 µM | 97.6 µM | > 100 µM | 62.9 | > 100 | 36.1 | > 100 µM | 42.4 | > 100 µM
O=C1c2c(O)ccc(O)c2C(=O)c2c(NCCNCCO)ccc(NCCNCCO)c21 | 1.41 µM and 1.64 µM and 3.86 µM | > 100 µM and 50 µM and 23.9 µM | – | 1.77 µM and 0.809 µM and 2.11 µM | – | 0.657 µM and 0.6 µM and 0.926 µM | – | 0.418 µM and 0.627 µM | – | 0.122 µM and 0.0851 µM and 0.204 µM | – | 1.66 µM and 1.03 µM and 2.31 µM | < 0.01 µM and < 0.005 µM and 0.00426 µM | 0.64 µM and 0.663 µM and 1.23 µM | 0.0127 | – | 0.0451 | 0.327 µM and 1.23 µM and 0.858 µM | – | 2.55 µM and 24 µM and 4.15 µM
